These are literature values, as cited in US10105405B2, “Compositions and methods for enhancing brain function using acetyl-L-carnitine, huperzine A and ginkgo biloba” (priority 2006, dated 2018).

The data set deals with aged subjects, patients with benign senescent forgetfulness, Alzheimer's disease (AD) and vascular dementia (VD).

With `C/C=C1\[C@H]2C=C(C)C[C@]1(N)c1ccc(=O)[nH]c1C2` [Huperzine A], where the note is “clinical trials in China”, the memory deficits result is listed as “significantly relieves memory deficits”. The “peripheral cholinergic side effects” value (compared with other AChEIs in use) is recorded as “minimal peripheral cholinergic side effects”.
